Reference: paper PMC8653655, “The Design, Synthesis and Evaluation of Rho-kinase Inhibitory Activity of 4-aryl-thiazole-2-amines” (Iranian Journal of Pharmaceutical Research : IJPR, 2021)
Read-outs that look alike come from different tables or passages of the source.

Tests used:
ROCK II = biological target: T1, ROCK II (Homo sapiens, UniProt O75116); assay: Enzyme-based ROCK II inhibitory activity assay (ELISA, Rho kinase assay kit CY-1160); assay type: biochemical; conditions: for inhibition at 10 µM: read-out: Inhibition of ROCKII (%); for IC50: read-out: IC50 against ROCK II
T1 construct: purchased Cycle, Nagoya, Japan CY-1160
T1 sequence (O75116 whole entry): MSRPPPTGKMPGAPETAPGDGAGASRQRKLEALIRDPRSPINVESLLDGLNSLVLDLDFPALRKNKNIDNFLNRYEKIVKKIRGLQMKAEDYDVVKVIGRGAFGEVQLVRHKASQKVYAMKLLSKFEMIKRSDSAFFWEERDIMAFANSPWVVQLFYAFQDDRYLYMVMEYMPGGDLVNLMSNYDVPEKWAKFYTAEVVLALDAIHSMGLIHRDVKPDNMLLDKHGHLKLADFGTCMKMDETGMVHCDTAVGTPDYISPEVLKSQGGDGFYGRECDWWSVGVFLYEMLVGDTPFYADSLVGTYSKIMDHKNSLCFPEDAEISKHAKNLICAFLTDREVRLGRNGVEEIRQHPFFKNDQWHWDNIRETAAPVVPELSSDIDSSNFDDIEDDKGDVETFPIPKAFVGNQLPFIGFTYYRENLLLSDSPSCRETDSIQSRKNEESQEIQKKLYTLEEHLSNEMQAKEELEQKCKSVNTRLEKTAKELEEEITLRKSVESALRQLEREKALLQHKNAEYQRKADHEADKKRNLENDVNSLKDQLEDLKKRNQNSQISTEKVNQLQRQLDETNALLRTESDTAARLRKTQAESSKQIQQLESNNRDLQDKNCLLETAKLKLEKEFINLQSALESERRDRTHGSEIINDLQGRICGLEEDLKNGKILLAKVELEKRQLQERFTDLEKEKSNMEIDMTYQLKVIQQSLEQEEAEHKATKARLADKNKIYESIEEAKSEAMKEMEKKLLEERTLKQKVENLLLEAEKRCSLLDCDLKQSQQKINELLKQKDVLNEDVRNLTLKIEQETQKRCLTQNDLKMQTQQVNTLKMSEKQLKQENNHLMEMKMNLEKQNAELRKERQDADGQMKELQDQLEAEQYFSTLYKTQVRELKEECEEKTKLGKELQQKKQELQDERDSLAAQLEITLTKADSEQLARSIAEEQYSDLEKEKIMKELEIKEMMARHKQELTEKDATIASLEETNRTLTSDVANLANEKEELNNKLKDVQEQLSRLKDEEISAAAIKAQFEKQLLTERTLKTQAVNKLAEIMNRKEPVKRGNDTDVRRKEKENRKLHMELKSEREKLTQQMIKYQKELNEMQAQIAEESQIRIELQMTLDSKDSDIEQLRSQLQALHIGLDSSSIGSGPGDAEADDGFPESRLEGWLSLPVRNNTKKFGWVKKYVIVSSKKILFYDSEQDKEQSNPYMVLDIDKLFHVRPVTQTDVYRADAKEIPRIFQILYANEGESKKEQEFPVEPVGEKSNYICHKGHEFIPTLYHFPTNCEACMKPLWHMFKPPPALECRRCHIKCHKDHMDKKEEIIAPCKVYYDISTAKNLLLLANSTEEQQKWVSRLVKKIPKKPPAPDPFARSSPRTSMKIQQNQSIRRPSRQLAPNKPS
Protocol: Enzyme-based ROCK II inhibitory activity studies
The enzyme-based ROCK II inhibitory activity assay was performed using the Rho kinase assay kit (CY-1160, Cycle, Nagoya, Japan). All operation was guided by the manufacturer’s instructions. Briefly, the compounds at 10 µM were pre-incubated in a system wherein ROCK II (0.02 ng/µL) phosphorylates the myosin-binding subunit (MBS) of kinase substrate pre-absorbed onto the microplate in the presence of Mg^2+ and ATP. Then, the system was washed after incubation at 30 ^◦C for 30 min. 100 µL of antibody was added to the wells and then incubated for 30 min at room temperature. 100 µL of substrate reagent and 100 µL stop solution were successively added to each well. The plates were read on the Viewlux in HTRF mode within 30 min.
All compounds were initially evaluated for their percentage inhibition against ROCK II with a ROCK II assay kit (CY-1160, Cycle, Japan).

ROCK = test system: ROCK; set-up: method as in PMID 18638453; conditions: compared with its in-vitro enzyme-based ROCK II activity; cited from earlier work
[1] = undesired pharmacokinetic properties, not suitable for non-topical administration; cited from earlier work
[2] = full concentration-response plots

Compound | inhibition at 10 µM (ROCK II; compound concentration 10 µM) [%] | IC50 (ROCK II; [2]) [nM] | melting point [°C] | also measured
O=C(Nc1nc(-c2cccnc2)c(CN2CCOCC2)s1)C1COc2ccccc2O1 (stereo not shown) [4l, N-(5-(morpholinomethyl)-4-(pyridin-3-yl)thiazol-2-yl)-2,3-dihydrobenzo[b] [1,4] dioxine-2-carboxamide] | 73.8 | 1020 ± 70 | 177 to 179 | –
CN1CCN(Cc2sc(NC(=O)c3ccc(Cl)c(Cl)c3)nc2-c2cccnc2)CC1 [4e, 3,4-Dichloro-N-(5-((4-methylpiperazin-1-yl)methyl)-4-(pyridin-3-yl)thiazol-2-yl) benzamide] | 27.9 | – | 179 to 181 | –
CN(C)Cc1sc(NC(=O)C2COc3ccccc3O2)nc1-c1cccnc1 (stereo not shown) [4j, N-(5-((dimethylamino)methyl)-4-(pyridin-3-yl)thiazol-2-yl)-2,3-dihydrobenzo[b] [1,4] dioxine-2-carboxamide] | 68.1 | 960 ± 120 | 192 to 196 | –
Cc1ccc(C(=O)Nc2nc(-c3cccnc3)c(CN3CCOCC3)s2)cc1 [4a, 4-Methyl-N-(5-(morpholinomethyl)-4-(pyridin-3-yl)thiazol-2-yl) benzamide] | 46.3 | – | 198 to 199 | –
N-(5-((4-Methylpiperazin-1-yl) methyl)-4- (pyridin-4-yl) thiazol-2-yl) isonicotinamide [4q] | – | – | – | Inhibition of ROCKII (%) (ROCK II; compound concentration 10 µM): 48.2%
Cc1ccc(C(=O)Nc2nc(-c3cccnc3)c(CN(C)C(C)C)s2)cc1 [4c, N-(5-((i-Propyl(methyl)amino)methyl)-4-(pyridin-3-yl)thiazol-2-yl)-4-methylbenzamide] | 32.8 | – | – | –
CN1CCN(Cc2sc(NC(=O)c3ccc(Cl)c(Cl)c3)nc2-c2ccncc2)CC1 [4o, 3,4-Dichloro-N-(5-((4-methylpiperazin-1-yl)methyl)-4-(pyridin-4-yl)thiazol-2-yl) benzamide] | 44.8 | – | 201 to 203 | –
Cc1ccc(C(=O)Nc2nc(-c3ccncc3)c(CN3CCN(C)CC3)s2)cc1 [4n, 4-Methyl-N-(5-((4-methylpiperazin-1-yl)methyl)-4-(pyridin-4-yl)thiazol-2-yl) benzamide] | 42.4 | – | 148 to 150 | –
CN(C)CCOc1cc(-c2cn[nH]c2)ccc1NC(=O)[C@H]1Cc2ccccc2CN1 [I] | – | – | – | bioavailability [1]: low bioavailability; clearance [1]: high clearance
O=C(Nc1nc(-c2ccncc2)c(CN2CCOCC2)s1)c1ccncc1 [4s, N-(5-(morpholinomethyl)-4-(pyridin-4-yl)thiazol-2-yl) isonicotinamide] | 58.1 | 8560 | 175 to 178 | –
CC(C)N(C)Cc1sc(NC(=O)c2ccc(Cl)c(Cl)c2)nc1-c1cccnc1 [4f, 3,4-Dichloro-N-(5-((i-propyl(methyl)amino)methyl)-4-(pyridin-3-yl)thiazol-2-yl) benzamide] | 34.6 | – | 171 to 172 | –

The next lines start with results.

inhibition at 10 µM (ROCK II; compound concentration 10 µM) [%] | IC50 (ROCK II; [2]) [nM] | melting point [°C] | Compound | also measured
84.4 | 20 | 178 to 180 | O=C(Nc1nc(-c2ccncc2)c(CN2CCOCC2)s1)C1COc2ccccc2O1 (stereo not shown) [4v, N-(5-(morpholinomethyl)-4-(pyridin-4-yl)thiazol-2-yl)-2,3-dihydrobenzo[b] [1,4] dioxine-2-carboxamide] | IC50 (ROCK II; value stated in text in nM): 20 nM
52.2 | 9120 ± 2460 | 178 to 180 | O=C(Nc1nc(-c2ccncc2)c(CN2CCOCC2)s1)c1cccnc1 [4t, N-(5-(Morpholinomethyl)-4-(pyridine-4-yl)thiazol-2-yl) nicotinamide] | –
91.3 | 10 ± 3 | – | O=C(Nc1nc(-c2ccncc2)cs1)C1COc2ccccc2O1 (stereo not shown) [II, reference compound] | potency in a cell-based assay (ROCK): much less potent
43.5 | – | 163 to 164 | O=C(Nc1nc(-c2ccncc2)c(CN2CCOCC2)s1)c1ccc(Cl)c(Cl)c1 [4p, 3,4-Dichloro-N-(5-(morpholinomethyl)-4-(pyridin-4-yl)thiazol-2-yl) benzamide] | –
35.3 | – | 201 to 202 | CN(C)Cc1sc(NC(=O)c2ccncc2)nc1-c1cccnc1 [4h, N-(5-((dimethylamino)methyl)-4-(pyridin-3-yl)thiazol-2-yl) isonicotinamid] | –
47.6 | – | 192 to 195 | O=C(Nc1nc(-c2ccncc2)c(CN2CCCC2)s1)c1ccncc1 [4r, N-(4-(Pyridin-4-yl)-5-(pyrrolidin-1-ylmethyl)thiazol-2-yl) isonicotinamide] | –
32.7 | – | 180 to 182 | Cc1ccc(C(=O)Nc2nc(-c3cccnc3)c(CN3CCN(C)CC3)s2)cc1 [4b, 4-Methyl-N-(5-((4-methylpiperazin-1-yl)methyl)-4-(pyridin-3-yl)thiazol-2-yl) benz-amide] | –
29.6 | – | 198 to 199 | CN1CCN(Cc2sc(NC(=O)c3ccccc3)nc2-c2cccnc2)CC1 [4g, N-(5-((4-Methylpiperazin-1-yl)methyl)-4-(pyridin-3-yl)thiazol-2-yl) benzamide] | –
42.9 | – | 208 to 210 | O=C(Nc1nc(-c2cccnc2)c(CN2CCOCC2)s1)c1ccc(Cl)c(Cl)c1 [4d, 3,4-Dichloro-N-(5-(morpholinomethyl)-4-(pyridin-3-yl)thiazol-2-yl) benzamide] | –
48.6 | – | 148 to 149 | Cc1ccc(C(=O)Nc2nc(-c3ccncc3)c(CN3CCOCC3)s2)cc1 [4m, 4-Methyl-N-(5-(morpholinomethyl)-4-(pyridin-4-yl)thiazol-2-yl) benzamide] | –
51.1 | 9830 ± 1450 | 185 to 187 | O=C(Nc1nc(-c2cccnc2)c(CN2CCOCC2)s1)c1ccncc1 [4i, N-(5-(morpholinomethyl)-4-(pyridin-3-yl)thiazol-2-yl) isonicotinamide] | –
61.3 | 1560 ± 230 | 181 to 182 | O=C(Nc1nc(-c2cccnc2)c(CN2CCCC2)s1)C1COc2ccccc2O1 (stereo not shown) [4k, N-(4-(pyridin-3-yl)-5-(pyrrolidin-1-ylmethyl)thiazol-2-yl)-2,3-dihydrobenzo[b] [1,4] dioxine-2-carboxamide] | –
38.1 | – | 169 to 171 | O=C(Nc1nc(-c2ccncc2)c(CN2CCCCC2)s1)c1cccnc1 [4u, N-(5-(Piperidin-1-ylmethyl)-4-(pyridin-4-yl)thiazol-2-yl) nicotinamide] | –
